ChEMBL document CHEMBL1128526, “Conformational effects on retinoid receptor selectivity. 2. Effects of retinoid bridging group on retinoid X receptor activity and selectivity” (J Med Chem, 1995)
Values joined by “and” are separate entries in the source; they are usually repeats but may differ in a detail not shown here. Identical values can stand only once.

Columns and labels:
[1] = biological target: T1, Retinoic acid receptor RXR-gamma (Homo sapiens, UniProt P48443); test: Effective concentrations against Retinoic acid receptor RXR-gamma
T1 sequence (P48443 whole entry): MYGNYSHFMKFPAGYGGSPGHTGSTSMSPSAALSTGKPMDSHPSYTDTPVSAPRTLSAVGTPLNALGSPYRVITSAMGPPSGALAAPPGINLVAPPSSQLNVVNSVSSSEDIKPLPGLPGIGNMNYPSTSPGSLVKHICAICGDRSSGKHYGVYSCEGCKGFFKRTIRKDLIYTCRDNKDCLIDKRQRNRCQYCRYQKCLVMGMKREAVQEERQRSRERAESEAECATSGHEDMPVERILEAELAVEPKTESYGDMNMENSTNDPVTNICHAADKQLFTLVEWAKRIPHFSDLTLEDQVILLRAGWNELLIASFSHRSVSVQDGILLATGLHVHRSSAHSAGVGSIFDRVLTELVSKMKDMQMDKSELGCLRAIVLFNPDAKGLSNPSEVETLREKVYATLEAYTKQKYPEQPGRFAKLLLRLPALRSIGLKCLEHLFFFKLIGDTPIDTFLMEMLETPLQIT

[2] = biological target: T2, Retinoic acid receptor RXR-beta (Homo sapiens, UniProt P28702); test: Effective concentrations against Retinoic acid receptor RXR-beta
T2 sequence (P28702 whole entry): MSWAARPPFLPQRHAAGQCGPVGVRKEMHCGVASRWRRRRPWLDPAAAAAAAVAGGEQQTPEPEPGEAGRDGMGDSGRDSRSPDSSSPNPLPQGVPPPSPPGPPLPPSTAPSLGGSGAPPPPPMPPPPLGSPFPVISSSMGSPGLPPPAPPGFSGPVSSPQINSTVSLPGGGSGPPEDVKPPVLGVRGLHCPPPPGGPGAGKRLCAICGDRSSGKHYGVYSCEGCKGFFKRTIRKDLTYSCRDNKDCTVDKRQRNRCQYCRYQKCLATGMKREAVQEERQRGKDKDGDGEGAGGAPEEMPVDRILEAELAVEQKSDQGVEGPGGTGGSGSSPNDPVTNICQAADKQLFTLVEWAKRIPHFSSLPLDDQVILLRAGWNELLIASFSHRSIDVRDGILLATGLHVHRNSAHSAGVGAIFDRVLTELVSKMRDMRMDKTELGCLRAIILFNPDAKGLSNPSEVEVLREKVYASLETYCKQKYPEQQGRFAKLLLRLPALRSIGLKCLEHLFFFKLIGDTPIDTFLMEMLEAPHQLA

[3] = biological target: T3, Retinoic acid receptor RXR-alpha (Homo sapiens, UniProt P19793); test: Effective concentration against Retinoic acid receptor RXR-alpha
T3 sequence (P19793 whole entry): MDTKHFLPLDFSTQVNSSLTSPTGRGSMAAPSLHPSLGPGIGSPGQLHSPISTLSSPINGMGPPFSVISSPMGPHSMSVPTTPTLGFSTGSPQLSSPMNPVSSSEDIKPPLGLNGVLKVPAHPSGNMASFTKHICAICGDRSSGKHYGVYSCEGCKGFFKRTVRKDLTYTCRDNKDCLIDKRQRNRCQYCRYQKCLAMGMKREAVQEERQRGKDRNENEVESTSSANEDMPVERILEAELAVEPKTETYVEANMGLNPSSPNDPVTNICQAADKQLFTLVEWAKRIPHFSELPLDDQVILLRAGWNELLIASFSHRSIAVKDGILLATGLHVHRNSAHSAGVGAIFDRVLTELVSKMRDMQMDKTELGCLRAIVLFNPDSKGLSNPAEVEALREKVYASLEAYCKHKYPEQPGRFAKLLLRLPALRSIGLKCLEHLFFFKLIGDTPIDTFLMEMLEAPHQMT

[4] = biological target: T2, Retinoic acid receptor RXR-beta; test: Effective concentrations against Retinoid X receptor RXR beta

SMILES | EC50 [1] | EC50 [2] | EC50 [3] | EC50 [4]
CC1(C)CCC(C)(C)c2cc(Cc3ccc(C(=O)O)cc3)ccc21 | 2000 nM | 2700 nM | 2500 nM | 
CC1(C)CCC(C)(C)c2cc(C3(c4ccc(C(=O)O)cc4)SCCCS3)ccc21 |  |  | 630 nM and 540 nM | 
CC1(C)CCC(C)(C)c2cc(C(O)c3ccc(C(=O)O)cc3)ccc21 (configuration not stated) |  |  | 2900 nM | 
C=C(c1ccc(C(=O)O)s1)c1cc2c(cc1C)C(C)(C)CCC2(C)C | 520 nM | 33 nM | 330 nM | 
CC1(C)CCC(C)(C)c2cc(C3(c4ccc(C(=O)O)cc4)SCCS3)ccc21 |  |  | 170 nM | 
CC1(C)CCC(C)(C)c2cc(C3(c4ccc(C(=O)O)cc4)OCCCO3)ccc21 |  |  | 750 nM and 1200 nM | 
CC1(C)CCC(C)(C)c2cc(C3(c4ccc(C(=O)O)cc4)OCCO3)ccc21 |  |  | 34 nM | 
C=C(c1ccc(C(=O)O)cc1)c1ccc2c(c1)C(C)(C)CCC2(C)C |  |  | 270 nM | 
Cc1cc2c(cc1C(=O)c1ccc(C(=O)O)s1)C(C)(C)CCC2(C)C | 300 nM | 1000 nM | 2200 nM | 
CC1(C)CCC(C)(C)c2cc(C3(c4ccc(C(=O)O)cc4)CC3)ccc21 |  |  | 55 nM | 
C/C=C(/c1ccc(C(=O)O)cc1)c1ccc2c(c1)C(C)(C)CCC2(C)C | 370 nM | 160 nM | 55 nM and 470 nM | 
CC1(C)CCC(C)(C)c2cc(C3(c4ccc(C(=O)O)cc4)OCCS3)ccc21 (configuration not stated) |  |  | 74 nM | 
CC(c1ccc(C(=O)O)cc1)c1ccc2c(c1)C(C)(C)CCC2(C)C (configuration not stated) |  |  | 300 nM | 

The remaining compounds from weak to strong by EC50 [3], led by results:

EC50 [1] | EC50 [2] | EC50 [3] | EC50 [4] | SMILES
 |  | 3100 nM |  | CC1(C)CCC(C)(C)c2cc(C(C)(C)c3ccc(C(=O)O)cc3)ccc21
530 nM | 1900 nM | 2500 nM |  | CC1(C)CCC(C)(C)c2cc(Oc3ccc(C(=O)O)cc3)ccc21
 |  | 2500 nM |  | C/C=C(\c1ccc(C(=O)O)cc1)c1ccc2c(c1)C(C)(C)CCC2(C)C
 |  | 380 nM |  | CC(C)=C(/C=C/C(C)=C/C(=O)O)c1ccc2c(c1)C(C)(C)CCC2(C)C
 |  | 200 nM |  | CC(C)=C(/C=C/C(C)=C/C(=O)O)c1cc2c(cc1C)C(C)(C)CCC2(C)C
 |  | 86 nM |  | CC(C)=C(c1ccc(C(=O)O)cc1)c1ccc2c(c1)C(C)(C)CCC2(C)C
2300 nM |  | 21 nM | 47 nM | CC(/C=C/C1(c2cc3c(cc2C)C(C)(C)CCC3(C)C)OCCO1)=C\C(=O)O
